Reference: BindingDB's records for PubMed 31865013 (n/a, 2020)

Molecular target: T1, Histone deacetylase 6 (Homo sapiens, UniProt Q9UBN7)
T1 sequence (Q9UBN7 whole entry): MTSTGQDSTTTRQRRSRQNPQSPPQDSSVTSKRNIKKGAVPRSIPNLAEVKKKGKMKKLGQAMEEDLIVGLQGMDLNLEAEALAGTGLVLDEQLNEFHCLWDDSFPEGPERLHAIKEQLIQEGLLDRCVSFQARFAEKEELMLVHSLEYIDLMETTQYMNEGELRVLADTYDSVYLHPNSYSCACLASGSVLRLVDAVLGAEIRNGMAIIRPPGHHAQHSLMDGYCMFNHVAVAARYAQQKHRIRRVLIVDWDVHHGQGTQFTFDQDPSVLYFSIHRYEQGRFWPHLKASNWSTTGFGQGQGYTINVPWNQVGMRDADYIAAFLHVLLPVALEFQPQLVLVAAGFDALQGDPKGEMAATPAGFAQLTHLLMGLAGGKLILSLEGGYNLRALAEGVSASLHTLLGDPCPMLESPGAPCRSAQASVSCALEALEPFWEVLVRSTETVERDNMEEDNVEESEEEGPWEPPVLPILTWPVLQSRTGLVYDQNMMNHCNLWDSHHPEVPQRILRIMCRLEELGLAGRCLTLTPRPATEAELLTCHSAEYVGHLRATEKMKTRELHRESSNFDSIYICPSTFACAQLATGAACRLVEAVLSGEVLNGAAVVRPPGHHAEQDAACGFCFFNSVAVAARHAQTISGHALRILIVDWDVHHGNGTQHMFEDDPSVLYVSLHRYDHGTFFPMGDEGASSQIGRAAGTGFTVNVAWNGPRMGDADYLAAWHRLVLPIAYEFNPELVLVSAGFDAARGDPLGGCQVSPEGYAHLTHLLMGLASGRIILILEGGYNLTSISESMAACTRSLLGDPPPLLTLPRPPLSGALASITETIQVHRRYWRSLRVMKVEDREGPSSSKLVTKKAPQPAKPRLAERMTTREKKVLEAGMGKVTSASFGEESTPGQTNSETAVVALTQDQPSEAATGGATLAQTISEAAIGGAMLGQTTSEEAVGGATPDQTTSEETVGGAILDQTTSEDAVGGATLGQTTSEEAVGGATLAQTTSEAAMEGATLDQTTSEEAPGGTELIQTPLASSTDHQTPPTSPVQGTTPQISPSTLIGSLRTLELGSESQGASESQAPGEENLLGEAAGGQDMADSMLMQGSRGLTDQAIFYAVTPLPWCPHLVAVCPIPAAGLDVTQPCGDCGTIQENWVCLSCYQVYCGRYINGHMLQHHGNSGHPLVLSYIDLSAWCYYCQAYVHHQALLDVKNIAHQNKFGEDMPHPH
Test: Inhibition of HDAC6 (unknown origin) using Fluor de lys as substrate by fluorescence based analysis

IC50	Compound
18 nM	CCc1cc(Cc2cnc(N)nc2N)cc(CC)c1N
11 nM	CCCCCCCCCCCCOc1c(CC)cc(Cc2cnc(N)nc2N)cc1CC
17 nM	Nc1ncc(Cc2ccc3c(c2)CCCN3)c(N)n1
16 nM	COCCOc1cc(Cc2cnc(N)nc2N)cc2c1NCCC2
